The subject of the experiment is Mycobacterium tuberculosis variant bovis. Description: Antimycobacterial activity against Mycobacterium bovis assessed as reduction in bacterial growth. It counts as functional.

Each structure is given as a SMILES string. ≈ marks a conversion by molar mass, not a printed value.

Take `Cc1cc(O)c2c(c1)C(=O)c1cccc(O)c1C2=O` [CHRYSOPHANOL]: the MIC worked out at 64 µg/mL (≈ 252 µM).

Source of the values: ChEMBL document CHEMBL5356934, “Antibacterial activities of anthraquinones: structure-activity relationships and action mechanisms” (RSC Med Chem, 2023).
